Test [1] has as its system HCT-116 human colon carcinoma cells. The experiment in a line: In vitro cytotoxicity (XTT assay), HCT-116. Conditions: HCT-116, 72 h, read-out: IC50 HCT-116. On the technique in general: Tetrazolium assays rely on reduction of a dye to a coloured formazan, in cell work by metabolically active cells.
Test [2] concerns HCT-116/VM46 human colon carcinoma cells. The experiment in a line: In vitro cytotoxicity (XTT assay), teniposide-resistant, multidrug resistance phenotype HCT-116/VM46.

Take `CC(=O)O[C@@]12CO[C@@H]1C[C@H](O)[C@@]1(C)C(=O)CC3=C(C)[C@@H](OC(=O)[C@H](O)[C@@H](NC(=O)c4ccccc4)c4ccccc4)C[C@@](O)([C@@H](OC(=O)c4ccccc4)[C@H]21)C3(C)C` [10-Desacetoxytaxol]: the IC50 in test [1] amounted to 8 nM.
Consider `CC(=O)O[C@H]1C(=O)[C@@]2(C)[C@H]([C@H](OC(=O)c3ccccc3)[C@]3(O)C[C@H](OC(=O)[C@H](O)[C@@H](NC(=O)c4ccccc4)c4ccccc4)C(C)=C1C3(C)C)[C@]1(OC(C)=O)CO[C@@H]1C[C@@H]2O` [Taxol], for which the IC50 in test [1] was found to be 4 nM; in test [2] (Homo sapiens, HCT-116/VM46, 72 h, read-out: IC50 HCT-116/VM46), 440 nM. In test [2] (value in parenthesis, HCT-116/VM46 relative to HCT116 cells, 4320 min), the “fold resistance relative to HCT116 cells” value came to 124.

(Values after patent US5350866A, “10-desacetoxytaxol derivatives” (Bristol-Myers Squibb Company, priority 1992, dated 1994).)
